“And” between values parts separate entries of the source, which are not always exact repeats. Identical values can stand only once.
Columns and labels:
MMP1 = molecular target: T1, MMP1 (Homo sapiens, UniProt P03956); test: Activity of purified MMP on substrate (reporter release); assay type: biochemical; settings: Table 1b; MMP1
T1 sequence (P03956 100-469): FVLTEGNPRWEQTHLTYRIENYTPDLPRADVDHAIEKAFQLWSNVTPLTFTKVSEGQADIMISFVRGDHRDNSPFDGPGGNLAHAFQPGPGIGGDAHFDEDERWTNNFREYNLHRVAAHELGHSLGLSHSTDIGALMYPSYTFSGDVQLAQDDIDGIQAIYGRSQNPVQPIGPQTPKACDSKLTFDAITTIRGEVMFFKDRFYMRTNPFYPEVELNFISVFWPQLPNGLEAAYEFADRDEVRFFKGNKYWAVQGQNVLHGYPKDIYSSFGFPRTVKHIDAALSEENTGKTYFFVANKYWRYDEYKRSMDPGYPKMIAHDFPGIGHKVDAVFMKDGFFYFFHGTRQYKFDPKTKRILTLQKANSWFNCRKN
Text: (§1) In order to confirm the specificity of the substrates for various MMPs, standard enzymatic assays were adapted to monitor the release of reporter. The reporter was either analysed by a LC-MS method as described in Example 3a, or by a LC-UV method as described in Example 4. A protocol for testing against other matrix metalloproteinases, including MMP9, using expressed and purified pro MMP is described, for instance, by C.

MMP3 = MMP3 (Homo sapiens, UniProt P08254); test: as above; assay type: biochemical; settings: Table 1b; MMP3
Text: as §1

MMP8 = molecular target: T2, MMP8 (Homo sapiens, UniProt P22894); test: as above; assay type: biochemical; settings: Table 1b; MMP8
T2 construct: purchased Calbiochem
Description: In order to confirm the specificity of the substrates for various MMPs, standard enzymatic assays were adapted to monitor the release of reporter. The reporter was either analysed by a LC-MS method as described in Example 3a, or by a LC-UV method as described in Example 4. Purified pro-MMP8 is purchased from Calbiochem. The enzyme (at 10 μg/ml) is activated by p-amino-phenyl-mercuric acetate (APMA) at 1 mM for 2.5 h, 35° C. The activated enzyme can be used to monitor activity of substrates as follows: MMP8 (200 ng/ml final concentration) is incubated for 90 minutes at 35° C.

MMP9 = test: as above; assay type: biochemical, human; settings: Table 1b; MMP9
Text: In order to confirm the specificity of the substrates for various MMPs, standard enzymatic assays were adapted to monitor the release of reporter. The reporter was either analysed by a LC-MS method as described in Example 3a, or by a LC-UV method as described in Example 4. […] The enzyme can be used to monitor activity of substrates as follows: […]

MMPs = test: Cleavage of separated diastereomers by MMPs to liberate the reporter; assay type: biochemical
MMP = MMP activity in synovial fluid (reporter release, HPLC); assay type: biochemical, human
Description: Synovial fluid (SF) was obtained from patients with rheumatoid arthritis (7 subjects) and systemic lupus erythematosus (SLE) (1 subject).
The amount of each sample was adjusted so that approximately 4 mg of total protein was used in the assay (Table 13).
The samples were made up to 180 μl with a buffer consisting of 50 mM Tricine pH 7.5, 200 mM NaCl, 10 mM CaCl2, 20 μM ZnCl2 and 0.05% Brij-35.
To the samples was added 20 μl of the substrate Methyl 1-acetyl-L-prolyl-L-leucylglycyl-α-R-(4-nitrophenylamino)-glycyl-L-leucylglycinate (Example 1.2) solution (10 mM in methanol). After 3 h incubation at 37° C., the reaction was stopped with 5 μl 200 mM EDTA. The samples were filtered through a precolumn (Waters OASIS HLB Icc, part no. 94225, pre-conditioned with 1 ml of ethanol followed by 1 ml water) which was eluted with 1 ml water and 1 ml of 90% ethanol. The samples were evaporated to dryness under a stream of nitrogen, redissolved in 200 μl 50% ethanol and vigorously mixed with vortex mixer and centrifuged (1000 g, 2 min). Of the supernatant, 10-160 μl aliquots were analysed for the reporter 4-nitroaniline with HPLC (detection as in example 3 or with UV at […]). A standard curve was obtained by from samples spiked with quantified amounts of the reporter (4NA) and treated in the same way as the analytical samples.

T2 sequence (P22894 101-467): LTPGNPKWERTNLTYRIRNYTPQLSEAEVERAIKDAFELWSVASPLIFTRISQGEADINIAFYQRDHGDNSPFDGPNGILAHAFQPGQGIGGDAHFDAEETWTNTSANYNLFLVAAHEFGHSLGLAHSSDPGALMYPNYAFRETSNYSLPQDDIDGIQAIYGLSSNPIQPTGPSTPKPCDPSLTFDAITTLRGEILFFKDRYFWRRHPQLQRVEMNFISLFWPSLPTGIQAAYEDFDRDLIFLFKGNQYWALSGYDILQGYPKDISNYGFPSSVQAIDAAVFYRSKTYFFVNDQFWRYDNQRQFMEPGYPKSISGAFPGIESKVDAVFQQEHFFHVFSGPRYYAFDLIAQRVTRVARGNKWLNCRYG
MMP3, sequence (P08254 100-477): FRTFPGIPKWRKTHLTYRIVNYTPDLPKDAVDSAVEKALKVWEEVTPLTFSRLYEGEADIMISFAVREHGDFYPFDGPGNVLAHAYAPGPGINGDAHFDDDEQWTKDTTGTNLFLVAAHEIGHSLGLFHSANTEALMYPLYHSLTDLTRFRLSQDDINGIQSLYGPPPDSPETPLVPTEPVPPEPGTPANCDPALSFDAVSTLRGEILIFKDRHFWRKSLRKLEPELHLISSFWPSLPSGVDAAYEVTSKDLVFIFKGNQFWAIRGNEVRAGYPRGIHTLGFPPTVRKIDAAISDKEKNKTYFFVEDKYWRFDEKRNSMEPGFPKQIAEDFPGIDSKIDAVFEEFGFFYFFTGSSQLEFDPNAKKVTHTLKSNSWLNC

| Compound | Activity of selected substrates with MMPs (MMP1) | Activity of selected substrates with MMPs (MMP3) | Activity of selected substrates with MMPs (MMP8) | Activity of selected substrates with MMPs (MMP9) | Cleavage by MMPs to liberate the reporter (MMPs) | release of reporter 4-biphenylmethanol (MMP; pooled sample of synovial fluid from all subjects in Table 13, same procedure) [nmol/ml SF] | 4NA released (MMP activity in synovial fluid) (MMP; synovial fluid of individual subjects (rheumatoid arthritis, SLE), approx. 4 mg total protein, 3 h at 37° C.) |
| --- | --- | --- | --- | --- | --- | --- | --- |
| CC(=O)N1CCC[C@H]1C(=O)N[C@@H](CC(C)C)C(=O)NCC(=O)N[C@@H](Nc1ccc([N+](=O)[O-])cc1)C(=O)N[C@@H](Cc1ccccc1)C(=O)Nc1ccccc1 [Example 1.5, 1-acetyl-L-prolyl-L-leucylglycyl-α-R-(4-nitrophenylamino)-glycyl-N-phenyl-L-phenylalaninamide] | 2.48 units/s (molRXH/molEnz * s) | 0.18 units/s (molRXH/molEnz * s) | 11.4 units/s (molRXH/molEnz * s) | 11.5 units/s (molRXH/molEnz * s) | rapidly cleaved by MMPs | – | – |
| COC(=O)CNC(=O)[C@H](CC(C)C)NC(=O)[C@@H](NC(=O)CNC(=O)[C@H](CC(C)C)NC(=O)[C@@H]1CCCN1C(C)=O)Nc1ccc(-c2nnc(-c3ccc(C)cc3)o2)cc1 [Example 1.4, Methyl 1-acetyl-L-prolyl-L-leucylglycyl-α-R-[4-(5-p-tolyl-[1,3,4]oxadiazol-2-yl)-phenylamino]-glycyl-L-leucylglycinate] | 0.00 units/s (molRXH/molEnz * s) | 0.00 units/s (molRXH/molEnz * s) | 0.05 units/s (molRXH/molEnz * s) | 0.58 units/s (molRXH/molEnz * s) | rapidly cleaved by MMPs | – | – |
| COC(=O)CNC(=O)[C@H](CC(C)C)NC(=O)[C@@H](NC(=O)CNC(=O)[C@H](CC(C)C)NC(=O)[C@@H]1CCCN1C(C)=O)OCc1ccc(-c2ccccc2)cc1 (single isomer, unassigned) [Example 1.3, Methyl 1-acetyl-L-prolyl-L-leucylglycyl-α-S-(biphenyl-4-ylmethoxy)-glycyl-L-leucylglycinate] | 35.4 units/s (molRXH/molEnz * s) | 5.5 units/s (molRXH/molEnz * s) | 26.9 units/s (molRXH/molEnz * s) | 63.6 units/s (molRXH/molEnz * s) | rapidly cleaved by MMPs | 33.2 | – |
| COC(=O)CNC(=O)[C@H](CC(C)C)NC(=O)[C@@H](NC(=O)CNC(=O)[C@H](CC(C)C)NC(=O)[C@@H]1CCCN1C(C)=O)Nc1ccc([N+](=O)[O-])cc1 [Example 1.2, Methyl 1-acetyl-L-prolyl-L-leucylglycyl-α-R-(4-nitrophenylamino)-glycyl-L-leucylglycinate] | – | – | – | – | rapidly cleaved by MMPs | – | 94.4 nmol/ml SF and 17.4 nmol/ml SF and 15.9 nmol/ml SF and 23.9 nmol/ml SF and 26.4 nmol/ml SF and 16.5 nmol/ml SF and 20.6 nmol/ml SF and 12.0 nmol/ml SF |
